Laboratory results from patent US20240247048A1 (EMORY UNIVERSITY, priority 2021, published 2024).

Experiments:
[1] = system: C1498 acute myeloid leukemia cells; experiment: survival of mice engrafted with C1498 acute myeloid leukemia; type: in vivo, mouse; set-up: percentage of survival: concentration or dose not given beside the values; settings: for Median survival time / Percentage alive day 60: 1 x 10E6 C1498 i.v. on day 0, 10 ug peptide s.c. daily on days 6-12; for percentage of survival: FIG. 3, leukemia-bearing mice treated with peptide
Experimental: B6 (CD45.2, H-2K^b) mice were administered C1498 1×10^6/mouse through tail vein. […] Survival of the mice was observed daily. Data were pooled from 3 replicated experiments.
B6 (CD45.2, H-2K^b) mice were administered C1498 1×10^6/mouse through tail vein. […] Survival of the mice was observed daily. Survival of the mice were pooled from 3 replicated experiments and analyzed by log-rank test compared with the survival of mice treated with scrambled peptide.
B6 SJL (CD45.1, H-2K^b) mice were administered C1498 (CD45.2 H-2K^b) 1×10^6/mouse through tail vein. […] The mice were bled weekly from the submandibular vein, starting from day 6, prior to the administration of peptides. Antibodies to CD45.2 identified myeloid leukemia cells and antibodies to CD45.1 identified murine leukocytes of the host.
(§1) VIP-related peptides tested in silico for predicted binding affinities to human VPAC1 and VPAC2 (Creative Biolabs). Docking scores show predicted free energy change associated with peptide binding. Note that a greater negative score is predicted to be associated with higher binding affinity. Based upon an initial screen of 300 peptides for binding affinity to VPAC1 and screening a subset of 100 peptides for binding affinity to VPAC2, a select group of peptides were synthesized and tested for their ability to stimulate proliferation of luciferase+ mouse T cells in vitro. The lowest concentration of peptide that led to maximal luminescence is shown. Proliferation data represents the relative level of luminescence from quadruplicate wells containing 1×10E5 T cells/well in a 96 well tissue culture plate stimulated for 96 hours with plate-bound anti-CD3 antibodies. Confirmatory in vivo testing of select peptides was then performed based upon their ability to induce autologous anti-leukemia responses in C57Bl/6 mice that had been previously injected with 1×10E6 C1498 acute myeloid leukemia cells. Leukemia cells were injected on day 0, 10 ug peptide was injected s.c. daily on days 6-12. The predicted binding affinity to VPAC1 and/or VPAC2 was associated with enhanced activity in stimulating mouse T cell proliferation and anti-leukemia activity in mice.
To test the ability of the disclosed VIP-R antagonists to effect survival to acute myeloid leukemia survival, B6 (CD45.2, H-2K^b) mice were administered C1498 1×10^6/mouse through tail vein. […] Survival of the mice was observed daily.

[2] = system: luciferase+ mouse T cells; experiment: proliferation of luciferase+ mouse T cells in vitro (plate-bound anti-CD3, luminescence); type: cell-based; settings: 96 hours; for lowest concentration of peptide that led to maximal luminescence: luc+ T cell proliferation, plate-bound anti-CD3; for luc+ T cell proliferation: relative luminescence, quadruplicate wells, plate-bound anti-CD3, daily addition of peptide, at the concentration in brackets
Description: as §1

human T cells = experiment: activation of healthy-donor human T cells (anti-CD3), marker expression by flow cytometry; type: cell-based; settings: across multiple donors
Experimental: Mean value from ‘Activated’ group shown with dotted line (---) for comparison. Responses from same healthy donors are shown with same color dots. Error bars are computed as the standard error of the mean (SEM) from 6 healthy donor samples.
This study adopted an ex-vivo system using human T cells isolated from healthy donors to screen for novel VIP-R antagonist peptides. Human T cells were cultured over 6 or 24 hours with activation in the presence or absence of peptides and were assessed for percent CD69 surface expression by flow cytometry to measure the state of T cell activation. The activity of the peptides was determined by percent increase in CD69 expression relative to no peptide control. […] We also observed that amongst the donors, most were classified as average responders, with measured value for CD69 expression within the error bars while two others had measured values outside the error bars, one sample reflecting a super-responder (purple dots) and one sample reflecting a slow-responder (green dots) (FIGS. 10A and 10B). […]
Human T cell activation and expansion. […] Cells were counted using Trypan blue dye and phenotyped via flow cytometry on day 9. […]

HSDAVFINTKLDKLNTRLVSAQNYMKYR [SCRAM1, reference compound]
Median survival time [1]: 28 days | Percentage alive day 60 [1]: 0%

HSDAVFTDNYTRLRKQMAVKKYLNSILN [VIP, reference compound]
lowest concentration of peptide that led to maximal luminescence [2]: 0.1 µM | luc+ T cell proliferation [2]: 77% + 13% | Median survival time [1]: 30 days | Percentage alive day 60 [1]: 0%

KKPRRPYTVNCTSLRKQIAVKKYLMLILN [ANT219]
lowest concentration of peptide that led to maximal luminescence [2]: 3 µM | luc+ T cell proliferation [2]: 189% + 8% | Median survival time [1]: 35 days | Percentage alive day 60 [1]: 20% | percentage of survival [1]: 20%

KPRRPYADNCTRLRKQIAVNKKYLNSILN [ANT114]
Median survival time [1]: 34 days | Percentage alive day 60 [1]: 20% | percentage of survival [1]: 20%

KPRRPYADNYTRLRKQMAVNKYLNLILN [ANT058]
Median survival time [1]: 35 days | Percentage alive day 60 [1]: 30% | percentage of survival [1]: 30%

KPRRPYAVNCTSLRKQIAVKKYLMSILN [ANT203]
lowest concentration of peptide that led to maximal luminescence [2]: 3 µM | luc+ T cell proliferation [2]: 185% + 8% | Median survival time [1]: 34 days | Percentage alive day 60 [1]: 25% | percentage of survival [1]: 25%

KPRRPYAVNCTSLRKQIAVNKYLNSILN [ANT202]
lowest concentration of peptide that led to maximal luminescence [2]: 3 µM | luc+ T cell proliferation [2]: 171% + 8%

KPRRPYAVNYTRLRKQIAVKKYLMSILN [ANT105]
lowest concentration of peptide that led to maximal luminescence [2]: 3 µM | luc+ T cell proliferation [2]: 121% + 6%

KPRRPYAVNYTRLRKQMAVNKYLMSILN [ANT107]
Median survival time [1]: 38 days | Percentage alive day 60 [1]: 30% | percentage of survival [1]: 20%

KPRRPYINTKLDKLNTRLVSAQNYMKYR [SCRAM2, reference compound]
luc+ T cell proliferation [2]: 108.74% | Percentage alive day 60 [1]: 0%

KPRRPYTDNCTRLRKQMAVKKYLNSILN [ANT005]
lowest concentration of peptide that led to maximal luminescence [2]: 3 µM | luc+ T cell proliferation [2]: 187% + 1%

KPRRPYTDNCTSLRKQIAVNKYLNLILN [ANT197]
lowest concentration of peptide that led to maximal luminescence [2]: 3 µM | luc+ T cell proliferation [2]: 161% + 13% | Median survival time [1]: 37 days | Percentage alive day 60 [1]: 35% | percentage of survival [1]: 35%

KPRRPYTDNYTRLRKQMAVKKYLNSILN [VIPhyb, reference compound]
lowest concentration of peptide that led to maximal luminescence [2]: 1 µM | luc+ T cell proliferation [2]: 197% + 38% | Median survival time [1]: 34 days | Percentage alive day 60 [1]: 5% | percentage of survival [1]: 5%

KPRRPYTSDYTRLRKQMAVKKYLNSILN [ANT300]
lowest concentration of peptide that led to maximal luminescence [2]: 0.3 µM | luc+ T cell proliferation [2]: 216% + 20% | Median survival time [1]: 47 days | Percentage alive day 60 [1]: 33.30%

KPRRPYTVNYTSLRKQIAVKKYLMLILN [ANT195]
lowest concentration of peptide that led to maximal luminescence [2]: 3 µM | luc+ T cell proliferation [2]: 161% + 23% | Median survival time [1]: 38 days | Percentage alive day 60 [1]: 40% | percentage of survival [1]: 40% | activity compared among the three antagonists (CD69) (human T cells): highest activity
